Test results from patent publication US10750743B2, “Pyridazinone herbicides” (E.I. DU PONT DE NEMOURS AND COMPANY, priority 2015, dated 2020).

Legend:
Type in all cases: in vivo
[1] = tested on: barnyardgrass (Echinochloa crus-galli); test: Test A preemergence, directed soil spray, visual injury rating; conditions: 0 is no effect, 100 is complete control
Source text: (§1) Seeds of plant species selected from barnyardgrass (Echinochloa crus-galli), kochia (Kochia scoparia), ragweed (common ragweed, Ambrosia elatior), ryegrass, It. (Italian ryegrass, Lolium multiflorum), foxtail, giant (giant foxtail, Setaria faberii), and pigweed (Amaranthus retroflexus), were planted into a blend of loam soil and sand and treated preemergence with a directed soil spray using test chemicals formulated in a non-phytotoxic solvent mixture which included a surfactant.
(§2) At the same time, plants selected from these weed species and also wheat (Triticum aestivum), corn (Zea mays), blackgrass (Alopecurus myosuroides), and galium (catchweed bedstraw, Galium aparine), were planted in pots containing the same blend of loam soil and sand and treated with postemergence applications of test chemicals formulated in the same manner Plants ranged in height from 2 to 10 cm and were in the one- to two-leaf stage for the postemergence treatment. Treated plants and untreated controls were maintained in a greenhouse for approximately 10 d, after which time all treated plants were compared to untreated controls and visually evaluated for injury. Plant response ratings, summarized in Table A, are based on a 0 to 100 scale where 0 is no effect and 100 is complete control. A dash (-) response means no test result.

[2] = tested on: foxtail, giant (giant foxtail, Setaria faberii); test: as above; conditions: 0 is no effect, 100 is complete control
Source text: as §1, §2

kochia (Kochia scoparia) [3] = test: as above; conditions: 0 is no effect, 100 is complete control
Source text: as §1, §2

[4] = tested on: pigweed (Amaranthus retroflexus); test: as above; conditions: 0 is no effect, 100 is complete control
Source text: as §1, §2

[5] = tested on: ragweed (common ragweed, Ambrosia elatior); test: as above; conditions: 0 is no effect, 100 is complete control
Source text: as §1, §2

[6] = tested on: ryegrass, It. (Italian ryegrass, Lolium multiflorum); test: as above; conditions: 0 is no effect, 100 is complete control
Source text: as §1, §2

[7] = tested on: barnyardgrass (Echinochloa crus-galli); test: Test A postemergence application, visual injury rating; conditions: 0 to 100 scale, 0 no effect, 100 complete control
Source text: as §1, §2

[8] = tested on: blackgrass (Alopecurus myosuroides); test: as above; conditions: 0 to 100 scale, 0 no effect, 100 complete control
Source text: as §1, §2

corn (Zea mays) = test: as above; conditions: 0 to 100 scale, 0 no effect, 100 complete control
Source text: as §1, §2

[9] = tested on: foxtail, giant (giant foxtail, Setaria faberii); test: as above; conditions: 0 to 100 scale, 0 no effect, 100 complete control
Source text: as §1, §2

[10] = tested on: galium (catchweed bedstraw, Galium aparine); test: as above; conditions: 0 to 100 scale, 0 no effect, 100 complete control
Source text: as §1, §2

kochia (Kochia scoparia) [11] = test: as above; conditions: 0 to 100 scale, 0 no effect, 100 complete control
Source text: as §1, §2

[12] = tested on: pigweed (Amaranthus retroflexus); test: as above; conditions: 0 to 100 scale, 0 no effect, 100 complete control
Source text: as §1, §2

[13] = tested on: ragweed (common ragweed, Ambrosia elatior); test: as above; conditions: 0 to 100 scale, 0 no effect, 100 complete control
Source text: as §1, §2

[14] = tested on: ryegrass, It. (Italian ryegrass, Lolium multiflorum); test: as above; conditions: 0 to 100 scale, 0 no effect, 100 complete control
Source text: as §1, §2

[15] = tested on: wheat (Triticum aestivum); test: as above; conditions: 0 to 100 scale, 0 no effect, 100 complete control
Source text: as §1, §2

SMILES	Plant response rating (0 to 100 scale), Barnyardgrass ([1]; 125 g ai/ha)	Plant response rating (0 to 100 scale), Barnyardgrass ([1]; 500 g ai/ha)	Plant response rating (0 to 100 scale), Foxtail, Giant ([2]; 125 g ai/ha)	Plant response rating (0 to 100 scale), Foxtail, Giant ([2]; 500 g ai/ha)	Plant response rating (0 to 100 scale), Kochia (kochia (Kochia scoparia) [3]; 125 g ai/ha)	Plant response rating (0 to 100 scale), Kochia (kochia (Kochia scoparia) [3]; 500 g ai/ha)	Plant response rating (0 to 100 scale), Pigweed ([4]; 125 g ai/ha)	Plant response rating (0 to 100 scale), Pigweed ([4]; 500 g ai/ha)	Plant response rating (0 to 100 scale), Ragweed ([5]; 125 g ai/ha)	Plant response rating (0 to 100 scale), Ryegrass, It. ([6]; 125 g ai/ha)	Plant response rating (0 to 100 scale), Ryegrass, It. ([6]; 500 g ai/ha)	Barnyardgrass plant response rating ([7]; 125 g ai/ha)	Barnyardgrass plant response rating ([7]; 500 g ai/ha)	Blackgrass plant response rating ([8]; 125 g ai/ha)	Blackgrass plant response rating ([8]; 500 g ai/ha)	Corn plant response rating (corn (Zea mays); 125 g ai/ha)	Corn plant response rating (corn (Zea mays); 500 g ai/ha)	Foxtail, Giant plant response rating ([9]; 125 g ai/ha)	Foxtail, Giant plant response rating ([9]; 500 g ai/ha)	Galium plant response rating ([10]; 125 g ai/ha)	other results
CCOC(=O)Oc1c(C)nn(C)c(=O)c1-c1cccc2sccc12 [Compound 5]	0	40	0	40	10	30	20	100	0	80	100	0	20	30	60	0	0	0	20	30	Plant response rating (0 to 100 scale), Ragweed ([5]; 500 g ai/ha): 20; Galium plant response rating ([10]; 500 g ai/ha): 80; Kochia plant response rating (kochia (Kochia scoparia) [11]; 125 g ai/ha): 0; Kochia plant response rating (kochia (Kochia scoparia) [11]; 500 g ai/ha): 20; Pigweed plant response rating ([12]; 125 g ai/ha): 0; Pigweed plant response rating ([12]; 500 g ai/ha): 20; Ragweed plant response rating ([13]; 125 g ai/ha): 0; Ragweed plant response rating ([13]; 500 g ai/ha): 20; Ryegrass, It. plant response rating ([14]; 125 g ai/ha): 70; Ryegrass, It. plant response rating ([14]; 500 g ai/ha): 90; Wheat plant response rating ([15]; 125 g ai/ha): 0; Wheat plant response rating ([15]; 500 g ai/ha): 20
Cc1nn(C)c(=O)c(-c2c(C)sc3ncccc23)c1O [Compound 14]	0	0	0	0	0	0	0	0	0	10	20	0	0	0	0	0	0	0	0	0	Plant response rating (0 to 100 scale), Ragweed ([5]; 500 g ai/ha): 0; Galium plant response rating ([10]; 500 g ai/ha): 40; Kochia plant response rating (kochia (Kochia scoparia) [11]; 125 g ai/ha): 0; Kochia plant response rating (kochia (Kochia scoparia) [11]; 500 g ai/ha): 0; Pigweed plant response rating ([12]; 125 g ai/ha): 0; Pigweed plant response rating ([12]; 500 g ai/ha): 0; Ragweed plant response rating ([13]; 125 g ai/ha): 0; Ragweed plant response rating ([13]; 500 g ai/ha): 0; Ryegrass, It. plant response rating ([14]; 125 g ai/ha): 0; Ryegrass, It. plant response rating ([14]; 500 g ai/ha): 20; Wheat plant response rating ([15]; 125 g ai/ha): 0; Wheat plant response rating ([15]; 500 g ai/ha): 0
Cc1cnc2sc(C)c(-c3c(OC(=O)OC(C)C)c(C)nn(C)c3=O)c2c1 [Compound 6]	0	0	20	0	0	50	0	70	0	0	50	0	10	0	20	0	0	20	40	50	Galium plant response rating ([10]; 500 g ai/ha): 70; Kochia plant response rating (kochia (Kochia scoparia) [11]; 125 g ai/ha): 30; Kochia plant response rating (kochia (Kochia scoparia) [11]; 500 g ai/ha): 60; Pigweed plant response rating ([12]; 125 g ai/ha): 20; Pigweed plant response rating ([12]; 500 g ai/ha): 80; Ragweed plant response rating ([13]; 125 g ai/ha): 10; Ragweed plant response rating ([13]; 500 g ai/ha): 30; Ryegrass, It. plant response rating ([14]; 125 g ai/ha): 20; Ryegrass, It. plant response rating ([14]; 500 g ai/ha): 60; Wheat plant response rating ([15]; 125 g ai/ha): 0; Wheat plant response rating ([15]; 500 g ai/ha): 0
CCOC(=O)Oc1c(C)nn(C)c(=O)c1-c1c(C)sc2ncc(C)cc12 [Compound 2]	0	20	0	20	0	60	0	80	0	30	100	0	20	20	40	0	0	0	20	40	Plant response rating (0 to 100 scale), Ragweed ([5]; 500 g ai/ha): 20; Galium plant response rating ([10]; 500 g ai/ha): 80; Kochia plant response rating (kochia (Kochia scoparia) [11]; 125 g ai/ha): 30; Kochia plant response rating (kochia (Kochia scoparia) [11]; 500 g ai/ha): 90; Pigweed plant response rating ([12]; 125 g ai/ha): 70; Pigweed plant response rating ([12]; 500 g ai/ha): 90; Ragweed plant response rating ([13]; 125 g ai/ha): 20; Ragweed plant response rating ([13]; 500 g ai/ha): 50; Ryegrass, It. plant response rating ([14]; 125 g ai/ha): 30; Ryegrass, It. plant response rating ([14]; 500 g ai/ha): 90; Wheat plant response rating ([15]; 125 g ai/ha): 0; Wheat plant response rating ([15]; 500 g ai/ha): 20
Cc1cnc2sc(C)c(-c3c(O)c(C)nn(C)c3=O)c2c1 [Compound 3]	0	10	0	10	0	20	40	80	0	30	70	0	30	20	40	0	0	0	30	30	Plant response rating (0 to 100 scale), Ragweed ([5]; 500 g ai/ha): 40; Galium plant response rating ([10]; 500 g ai/ha): 80; Kochia plant response rating (kochia (Kochia scoparia) [11]; 125 g ai/ha): 30; Kochia plant response rating (kochia (Kochia scoparia) [11]; 500 g ai/ha): 90; Pigweed plant response rating ([12]; 125 g ai/ha): 80; Pigweed plant response rating ([12]; 500 g ai/ha): 90; Ragweed plant response rating ([13]; 125 g ai/ha): 20; Ragweed plant response rating ([13]; 500 g ai/ha): 50; Ryegrass, It. plant response rating ([14]; 125 g ai/ha): 20; Ryegrass, It. plant response rating ([14]; 500 g ai/ha): 80; Wheat plant response rating ([15]; 125 g ai/ha): 0; Wheat plant response rating ([15]; 500 g ai/ha): 20
